Key:
[1] = system: smoke exposure-induced COPD rats; test: Pharmacodynamic study of 17-HPC inhalation in smoke exposure-induced COPD rats (lung function, BALF differential count, HE staining, body weight); assay type: in vivo, Wistar rats; conditions: for weight increase: at 24 weeks
Protocol: (§1) Seventy-two Wistar rats were randomly divided into the blank control group, model group, 17-HPC (0.5 mg/ml, 0.25 mg/ml and 0.1 mg/ml) groups, BUD (0.5 mg/ml and 0.1 mg/ml) groups, and combination treatment (0.5 mg/ml BUD+0.25 mg/ml 17-HPC and 0.1 mg/ml BUD+0.25 mg/ml 17-HPC) groups. Drug concentration is the nebulized solution concentration. Lung function (forced vital capacity) of rats was measured using the small animal spirometer, and differential count in the BALF was determined under the microscope. Serum and BALF cytokine (IL-6, IL-17, TNF-α and IL-β) levels were measured by ELISA. Inflammatory cell infiltration area and MLI in rat lung tissues were determined by HE staining.

[2] = system: IL-6, IL-17, TNF-α and IL-1β; test: Serum and BALF cytokine levels by ELISA in COPD rats; assay type: in vivo, Wistar rats; conditions: aside from the low dose (0.1 mg/ml) 17-HPC group
Protocol: as §1, with “To examine the in vitro and in vivo efficacy of 17-HPC inhalation in chronic obstructive pulmonary disease (COPD) rats, a rat model of COPD was established by exposing Wistar rats to CS for 1 hour every day for a total of 180 days. Seventy-two” for “Seventy-two”

Sprague-Dawley rats = test: Seven-day inhalation toxicity study in rats (GLP); assay type: in vivo
Protocol: A 7-day inhalation toxicity study in rats was conducted under GLP conditions. In this study, aerosolized 17-HPC was administered to Sprague-Dawley rats (10/sex/group) at 8, 24, and 72 mg/kg/day for 7 consecutive days. A control group of rats was dosed with aerosolized vehicle. Animals were observed daily for clinical signs. Body weight and food consumption were recorded at pretest, and then on Days 1, 4, and 7. In order to evaluate reversibility of 17-HPC treatment, a satellite rat group (5/sex/group) was dosed by inhalation at 72 mg/kg/day for 7 days, and then was sacrificed on Day 14. Except for the rats in the satellite group, all animals were sacrificed on Day 8. Hematology and biochemistry examinations were performed at the end of the study. Organ weight, gross pathology, and histopathology evaluations were performed.

[3] = PK of PR2005 formulations (oral gavage, capsule, IM) in female dogs, relative bioavailability vs MAKENA; assay type: in vivo; conditions: 750 mg compared to 250 mg
Description: This study determined the pharmacokinetic parameters of the test drug PR2005 (also referred to herein as 17-HPC) in different formulations after oral gavage or capsule administrations in dogs. This study further determined the relative bioavailability of the test drug PR2005 in each formulation, compared to intramuscular injection solution (MAKENA®).
PK parameters were estimated, including maximum plasma drug concentration (Cmax), time to reach Cmax (Tmax), time delay in absorption process (Tlag), area under the plasma concentration-time curve from time 0 to the last quantifiable data point (AUClast), area under the plasma concentration-time curve from time zero to infinity (AUCinf), plasma half-life (t1/2) and apparent plasma clearance (CL/F), apparent volume of distribution (Vz/F). All these parameters were computed using standard non-compartmental methods of analysis. […] Plasma PR2005 PK data was analyzed in Phoenix WinNonLin 8.1 (Certara USA, Inc.).
Log-transformed values of AUCinf were analyzed using a linear mixed-effects model. […] After back transformation from the log scale, estimates of geometric LSM and 90% CI for the ratio of means were calculated. Relative bioavailability (Fr %) was calculated as the ratio of dose normalized geometric least square mean (LSM) for test formulation and IM solution: […]

[4] = target: ABCB1 efflux transporters (Homo sapiens, UniProt P08183); conditions: literature (Bloise et al. 2016); cited from earlier work
Sequence of ABCB1 efflux transporters (P08183 whole entry): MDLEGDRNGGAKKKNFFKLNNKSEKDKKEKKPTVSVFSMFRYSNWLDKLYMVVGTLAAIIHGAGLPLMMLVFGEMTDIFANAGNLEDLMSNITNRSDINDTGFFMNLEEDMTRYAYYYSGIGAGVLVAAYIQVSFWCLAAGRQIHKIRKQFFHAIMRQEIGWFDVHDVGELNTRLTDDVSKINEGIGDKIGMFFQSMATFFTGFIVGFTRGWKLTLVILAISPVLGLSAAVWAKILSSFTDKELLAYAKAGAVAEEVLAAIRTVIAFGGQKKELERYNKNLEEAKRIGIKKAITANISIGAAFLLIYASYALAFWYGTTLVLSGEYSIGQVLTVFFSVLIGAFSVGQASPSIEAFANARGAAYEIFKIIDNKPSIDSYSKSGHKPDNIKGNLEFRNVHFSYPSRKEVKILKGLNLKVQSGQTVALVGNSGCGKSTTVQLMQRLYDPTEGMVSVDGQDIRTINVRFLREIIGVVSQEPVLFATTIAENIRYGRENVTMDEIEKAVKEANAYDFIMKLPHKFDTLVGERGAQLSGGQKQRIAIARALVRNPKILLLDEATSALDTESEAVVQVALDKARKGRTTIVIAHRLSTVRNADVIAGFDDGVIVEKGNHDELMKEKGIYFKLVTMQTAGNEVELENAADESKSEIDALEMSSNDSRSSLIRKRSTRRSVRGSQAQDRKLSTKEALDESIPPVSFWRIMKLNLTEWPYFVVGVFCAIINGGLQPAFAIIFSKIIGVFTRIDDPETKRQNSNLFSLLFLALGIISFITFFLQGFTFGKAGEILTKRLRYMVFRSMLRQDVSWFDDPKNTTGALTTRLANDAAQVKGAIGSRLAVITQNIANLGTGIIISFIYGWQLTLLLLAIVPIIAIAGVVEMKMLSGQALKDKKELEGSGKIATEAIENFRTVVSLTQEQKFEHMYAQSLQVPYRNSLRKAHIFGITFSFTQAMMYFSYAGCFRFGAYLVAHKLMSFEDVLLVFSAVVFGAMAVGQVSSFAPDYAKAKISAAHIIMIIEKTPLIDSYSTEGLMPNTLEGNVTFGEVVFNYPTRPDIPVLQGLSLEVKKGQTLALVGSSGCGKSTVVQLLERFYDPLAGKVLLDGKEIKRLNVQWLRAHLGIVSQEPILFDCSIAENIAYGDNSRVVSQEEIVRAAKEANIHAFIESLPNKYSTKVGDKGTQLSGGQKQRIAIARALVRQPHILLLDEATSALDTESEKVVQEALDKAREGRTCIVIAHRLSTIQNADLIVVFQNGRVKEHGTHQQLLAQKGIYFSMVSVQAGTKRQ

CCCC1O[C@@H]2C[C@H]3[C@@H]4CCC5=CC(=O)C=C[C@]5(C)[C@H]4[C@@H](O)C[C@]3(C)[C@]2(C(=O)CO)O1 (stereo partly drawn) [BUD, budesonide]
weight increase ([1]; vs model group): inhibited weight increase

CCCCCC(=O)O[C@]1(C(C)=O)CC[C@H]2[C@@H]3CCC4=CC(=O)CC[C@]4(C)[C@H]3CC[C@@]21C [Solution 17-HPC, 17-[(1-Oxohexyl)oxyl]-pregn-4-ene-3,20-dione]
weight increase ([1]; vs model group): no difference in weight increase between the 17-HPC groups and the model group
MLI ([1]; lung tissue, HE staining): decreased in the other 17-HPC groups and BUD groups in a dose-dependent manner
inflammatory cell infiltration in lung tissues (HE staining) ([1]; nebulized inhalation): attenuated in the 17-HPC groups
percentage of neutrophils in rat BALF ([1]; nebulized inhalation): reduced the percentage of neutrophils in rat BALF
FEV0.2/FVC % ([1]; nebulized inhalation, vs model group, after 24 weeks of CS exposure): improved FEV0.2/FVC % in a dose-dependent manner
TNF-α, IL-1β, IL-6 and IL-17 levels in the BALF [2]: can downregulate TNF-α, IL-1β, IL-6 and IL-17 levels in the BALF
clinical signs and body weight change (Sprague-Dawley rats; 8 mg/kg/day group, inhalation 7 days, preliminary): no clinical signs and body weight change were observed
Hematological and biochemical parameters (Sprague-Dawley rats; 8 mg/kg/day vs vehicle, preliminary): comparable between the animals treated with vehicle and 17-HPC at 8 mg/kg/day
organ weights, necropsy and histopathology (Sprague-Dawley rats; 8 mg/kg/day, preliminary): Significant changes in organ weights, necropsy and histopathology were not recorded
NOAEL relative to proposed initial clinical dose (300 μg) based on body surface areas (Sprague-Dawley rats; rat NOAEL 48 mg/m^2/day vs 222 μg/m^2/day): approximately 216 times
no observed adverse effect level (NOAEL), body surface (Sprague-Dawley rats; rats, inhalation, 7 consecutive days): 48 mg/m^2/day
pathological alterations after 7-day recovery period (Sprague-Dawley rats; satellite group, 72 mg/kg/day for 7 days, sacrificed Day 14): no remarkable pathological alterations in any animals from the satellite group
dose proportionality of Cmax and AUC [3]: generally greater than dose proportional
efflux transporter substrate [4]: substrate of ABCB1 efflux transporters

Reference: US20240285649A1, “PROGESTOGEN FORMULATIONS FOR USE IN MODULATING A CYTOKINE STORM MEDIATOR” (Shenzhen Evergreen Therapeutics Co., Ltd, priority 2020, published 2024)
